Values belong to the molecule of their own block, whether it stands above or below them.
Key:
[1] = tablet formulation, Malarone label; cited from earlier work
[2] = physchem; type: physicochemical
[3] = Intrinsic dissolution/solubility under standard USP conditions (40% isopropyl alcohol with phosphate buffer pH 8.0); type: physicochemical
[4] = Comparative rat pharmacokinetic study, plasma analyzed by LC MS/MS; type: in vivo, albino Wistar rats
Protocol: Comparative pharmacokinetic study of complex of example-I at two doses with physical mixtures of Atovaquone and Proguanil hydrochloride (Malarone) was carried for profiling of bioavailability of Atovaquone, Proguanil and Cycloguanil from all three samples. Four groups of 13-14 weeks old five albino Wistar rats were made through random selection. Group I served as a vehicle control and received only 0.5% sodium carboxymethyl cellulose, group II and group III received two different doses of complex of Example I, and group IV received a physical mixture of Atovaquone and Proguanil hydrochloride (Malarone). The dose volume used for this study was 10 ml/Kg of body weight. Orbital sinus was used as blood collection site and the blood was collected in EDTA coated microcentrifuge tubes at different time points between 0 min (pre dose) to 240 hrs. Plasma samples were analyzed by LC MS/MS. Comparative pharmacokinetic profiles of Atovaquone, Proguanil and Cycloguanil are as given below in table 3, 4, and 5 respectively: […]

pKa [2]: 8.39
SMILES: O=C1C(O)=C([C@H]2CC[C@H](c3ccc(Cl)cc3)CC2)C(=O)c2ccccc21 [Atovaquone, trans-2-[4-(4-chlorophenyl)cyclohexyl]-3-hydroxy-1,4-naphthoquinone]
absolute bioavailability of Atovaquone [1]: 23%

% Dissolution Atovaquone ([3]; 1 Hrs.): 2.64%
% Dissolution Proguanil ([3]; 1 Hrs.): 1.97%
% Dissolution Atovaquone ([3]; 2 Hrs.): 5.61%
% Dissolution Proguanil ([3]; 2 Hrs.): 3.64%
% Dissolution Atovaquone ([3]; 3 Hrs.): 7.72%
% Dissolution Proguanil ([3]; 3 Hrs.): 5.22%
% Dissolution Atovaquone ([3]; 4 Hrs.): 9.75%
% Dissolution Proguanil ([3]; 4 Hrs.): 6.38%
intrinsic solubility of Atovaquone compared with physical mixture of Atovaquone-Proguanil ([3]; 40% isopropyl alcohol with phosphate buffer pH 8.0): almost doubled
Atovaquone bioavailability increase versus corresponding ratio of physical mixture [4]: increased by at least two times
AUC0-inf of Atovaquone ([4]; Atovaquone dose 6.166 mg/kg): 298501.894 ng/hrxml
Cmax of Atovaquone ([4]; Atovaquone dose 6.166 mg/kg): 4925.009 ng/mL
MRT of Atovaquone ([4]; Atovaquone dose 6.166 mg/kg): 39.240 h
T1/2 of Atovaquone ([4]; Atovaquone dose 6.166 mg/kg): 26.833 h
Tmax of Atovaquone ([4]; Atovaquone dose 6.166 mg/kg): 19.200 h
Vd of Atovaquone ([4]; Atovaquone dose 6.166 mg/kg): 0.001 L/kg
AUC0-inf of Atovaquone ([4]; Atovaquone dose 6.166 mg/kg (Table 3)): 298501.894 ± 117805.568 ng/hr × mL
AUC0-inf of Atovaquone ([4]; Atovaquone dose 13.005 mg/kg): 472148.864 ng/hrxml
Cmax of Atovaquone ([4]; Atovaquone dose 13.005 mg/kg): 6779.226 ng/mL
MRT of Atovaquone ([4]; Atovaquone dose 13.005 mg/kg): 50.644 h
T1/2 of Atovaquone ([4]; Atovaquone dose 13.005 mg/kg): 29.542 h
Tmax of Atovaquone ([4]; Atovaquone dose 13.005 mg/kg): 12.8 h
Vd of Atovaquone ([4]; Atovaquone dose 13.005 mg/kg): 0.001 L/kg
AUC0-inf of Cycloguanil ([4]; Proguanil dose 4.2642 mg/kg): 38.910 ng/hrxml
AUC0-inf of Proguanil ([4]; Proguanil dose 4.2642 mg/kg): 497.306 ng/hrxml
Cl of Cycloguanil ([4]; Proguanil dose 4.2642 mg/kg): 0.118 L/kg/hr
Cl of Proguanil ([4]; Proguanil dose 4.2642 mg/kg): 0.15 mL/min/kg
Cmax of Cycloguanil ([4]; Proguanil dose 4.2642 mg/kg): 4.667 ng/ml
Cmax of Proguanil ([4]; Proguanil dose 4.2642 mg/kg): 87.400 ng/mL
MRT of Cycloguanil ([4]; Proguanil dose 4.2642 mg/kg): 5.753 hr
MRT of Proguanil ([4]; Proguanil dose 4.2642 mg/kg): 5.581 h
T1/2 of Cycloguanil ([4]; Proguanil dose 4.2642 mg/kg): 5.620 hr
T1/2 of Proguanil ([4]; Proguanil dose 4.2642 mg/kg): 4.779 h
Tmax of Cycloguanil ([4]; Proguanil dose 4.2642 mg/kg): 3.200 hr
Tmax of Proguanil ([4]; Proguanil dose 4.2642 mg/kg): 2.800 h
Vd of Cycloguanil ([4]; Proguanil dose 4.2642 mg/kg): 0.873 L/Kg
Vd of Proguanil ([4]; Proguanil dose 4.2642 mg/kg): 0.061 L/kg
AUC0-inf of Cycloguanil ([4]; Proguanil dose 8.995 mg/kg): 34.797 ng/hrxml
AUC0-inf of Proguanil ([4]; Proguanil dose 8.995 mg/kg): 485.239 ng/hrxml
Cl of Cycloguanil ([4]; Proguanil dose 8.995 mg/kg): 0.261 L/kg/hr
Cl of Proguanil ([4]; Proguanil dose 8.995 mg/kg): 0.317 mL/min/kg
Cmax of Cycloguanil ([4]; Proguanil dose 8.995 mg/kg): 6.954 ng/ml
Cmax of Proguanil ([4]; Proguanil dose 8.995 mg/kg): 94.515 ng/mL
MRT of Cycloguanil ([4]; Proguanil dose 8.995 mg/kg): 5.106 hr
MRT of Proguanil ([4]; Proguanil dose 8.995 mg/kg): 4.933 h
T1/2 of Cycloguanil ([4]; Proguanil dose 8.995 mg/kg): 4.406 hr
T1/2 of Proguanil ([4]; Proguanil dose 8.995 mg/kg): 13.149 h
Tmax of Cycloguanil ([4]; Proguanil dose 8.995 mg/kg): 2.00 hr
Tmax of Proguanil ([4]; Proguanil dose 8.995 mg/kg): 1.15 h
Vd of Cycloguanil ([4]; Proguanil dose 8.995 mg/kg): 1.618 L/Kg
Vd of Proguanil ([4]; Proguanil dose 8.995 mg/kg): 0.349 L/kg
SMILES: CC(C)NC(=N)NC(=N)Nc1ccc(Cl)cc1.O=C1C(O)=C([C@H]2CC[C@H](c3ccc(Cl)cc3)CC2)C(=O)c2ccccc21 [Complex, trans-Atovaquone-Proguanil complex (1:1)]
